Reference: patent publication US20210002301A1, “NOVEL ISOTHIAZOLO-AZEPINONE BICYCLES, PROCESSES FOR THEIR PREPARATION AND THEIR USE AS HERBICIDES AND/OR PLANT GROWTH REGULATORS” (Bayer Aktiengesellschaft, priority 2017, published 2021)

What was measured:
Conditions in all cases: Dosage 320
ALOMY [1] = assay: Pre-emergence herbicidal test; format: in vivo, Alopecurus myosuroides
VIOTR [2] = assay: Post-emergence herbicidal test; format: in vivo, Viola tricolor
ABUTH [3] = assay: Pre-emergence herbicidal test; format: in vivo, Abutilon theophrasti
VERPE [4] = assay: Post-emergence herbicidal test; format: in vivo, Veronica persica
MATIN = assay: Pre-emergence herbicidal test; format: in vivo, Matricaria inodora
POLCO [5] = assay: Pre-emergence herbicidal test; format: in vivo, Polygonum convolvulus
ECHCG [6] = assay: Post-emergence herbicidal test; format: in vivo, Echinochloa crus-galli
AMARE [7] = assay: Pre-emergence herbicidal test; format: in vivo, Amaranthus retroflexus
STEME [8] = assay: Post-emergence herbicidal test; format: in vivo, Stellaria media
SETVI [9] = assay: Post-emergence herbicidal test; format: in vivo, Setaria viridis
ECHCG [10] = assay: Pre-emergence herbicidal test; format: in vivo, Echinochloa crus-galli
PHBPU [11] = assay: Post-emergence herbicidal test; format: in vivo, Pharbitis purpurea
VIOTR [12] = assay: Pre-emergence herbicidal test; format: in vivo, Viola tricolor
POLCO [13] = assay: Post-emergence herbicidal test; format: in vivo, Polygonum convolvulus
HORMU = assay: Pre-emergence herbicidal test; format: in vivo
ALOMY [14] = assay: Post-emergence herbicidal test; format: in vivo, Alopecurus myosuroides
AMARE [15] = assay: Post-emergence herbicidal test; format: in vivo, Amaranthus retroflexus
ABUTH [16] = assay: Post-emergence herbicidal test; format: in vivo, Abutilon theophrasti
LOLRI = assay: Pre-emergence herbicidal test; format: in vivo
SETVI [17] = assay: Pre-emergence herbicidal test; format: in vivo, Setaria viridis
STEME [18] = assay: Pre-emergence herbicidal test; format: in vivo, Stellaria media
PHBPU [19] = assay: Pre-emergence herbicidal test; format: in vivo, Pharbitis purpurea
VERPE [20] = assay: Pre-emergence herbicidal test; format: in vivo, Veronica persica

Structure (SMILES) | ALOMY (ALOMY [1]) | VIOTR (VIOTR [2]) | ABUTH (ABUTH [3]) | VERPE (VERPE [4]) | POLCO (POLCO [5]) | ECHCG (ECHCG [6]) | AMARE (AMARE [7]) | STEME (STEME [8]) | SETVI (SETVI [9]) | ECHCG (ECHCG [10]) | PHBPU (PHBPU [11]) | VIOTR (VIOTR [12]) | POLCO (POLCO [13]) | ALOMY (ALOMY [14]) | AMARE (AMARE [15]) | ABUTH (ABUTH [16]) | SETVI (SETVI [17]) | STEME (STEME [18]) | PHBPU (PHBPU [19]) | VERPE (VERPE [20]) | further results
O=C1c2snc(NC(=O)C(F)(F)C(F)(F)F)c2C=CCN1CC1CCCCC1 [Example I-61] | 90 | 100 | 100 | 90 | 100 | 90 | 100 | 100 | 80 | 100 | 90 | 100 | 100 | 90 | 100 | 80 | 100 | 100 | 100 | 100 | MATIN (MATIN): 100; HORMU (HORMU): 100; LOLRI (LOLRI): 100
O=C(Nc1nsc2c1C=CCN(C1CCCCC1)C2=O)C(F)F [Example I-25] | 100 | 100 | 100 | 90 | 100 | 100 | 100 | 100 | 100 | 100 | 100 | 100 | 100 | 100 | 100 | 100 | 100 | 100 | 100 | 100 | –
Nc1nsc2c1C=CCN(CC1CCCCC1)C2=O [Example I-04, 3-amino-7-(cyclohexylmethyl)-6H-isothiazolo[5,4-c]azepin-8-one] | 100 | 100 | 100 | 90 | 100 | 100 | 100 | 100 | 90 | 100 | 100 | 100 | 100 | 100 | 100 | 100 | 100 | 100 | 100 | 100 | MATIN (MATIN): 100; HORMU (HORMU): 90; LOLRI (LOLRI): 100
